Test results published in the NIST ThermoML archive (doi:10.1021/je700594n).
± gives the expanded uncertainty stated by the source.

Assays:
[1] = Liquid; for mass density: 293.15 K, 101.33 kPa; for vapor or sublimation pressure: Ebulliometric method (Recirculating still)
[2] = refractive index (Na D-line) (dimensionless); settings: 293.15 K; 101.33 kPa; Liquid; Standard Abbe refractometry

SMILES | mass density [1] [kg/m3] | vapor or sublimation pressure ([1]; 383.1 K) [kPa] | vapor or sublimation pressure ([1]; 404.24 K) [kPa] | vapor or sublimation pressure ([1]; 417.99 K) [kPa] | vapor or sublimation pressure ([1]; 426.54 K) [kPa] | refractive index [2] | vapor or sublimation pressure ([1]; 379.88 K) [kPa] | vapor or sublimation pressure ([1]; 401.28 K) [kPa] | vapor or sublimation pressure ([1]; 415.26 K) [kPa] | vapor or sublimation pressure ([1]; 423.97 K) [kPa] | vapor or sublimation pressure ([1]; 375.63 K) [kPa] | vapor or sublimation pressure ([1]; 392.7 K) [kPa] | vapor or sublimation pressure ([1]; 403.8 K) [kPa] | vapor or sublimation pressure ([1]; 410.86 K) [kPa]
COc1ccccc1 [anisole] | 994.1 ± 1.2 | 26.66 ± 0.25 | 53.33 ± 0.3 | 79.99 ± 0.43 | 101.32 ± 0.5 | 1.5171 ± 0.0007 |  |  |  |  |  |  |  | 
CCCCCCCCC [nonane] | 717.6 ± 0.7 |  |  |  |  | 1.4055 ± 0.0007 | 26.66 ± 0.25 | 53.33 ± 0.3 | 79.99 ± 0.42 | 101.32 ± 0.49 |  |  |  | 
CCCCCO [pentan-1-ol] | 814.5 ± 1 |  |  |  |  | 1.4098 ± 0.0007 |  |  |  |  | 26.66 ± 0.31 | 53.33 ± 0.37 | 79.99 ± 0.53 | 101.32 ± 0.61
